Test: Phase I dose-escalation: safety, tolerability, DLT and MTD of weekly 1-h IV infusion
Type: in vivo
Procedure: The study was an open-label, multicentre, phase 1 dose-escalation study using a 3 + 3 design. The primary objective was to determine the MTD of weekly administered PG545 via IV infusion. Secondary objectives were to characterize safety, tolerability, clinical activity, PK and PD biomarkers.
Patients continued treatment until disease progression, unacceptable toxicity or withdrawal (either voluntarily or investigator-decision).
All patients were assessed for safety, those who received at least one dose of PG545 were evaluated for efficacy. Safety assessment included the incidence of all adverse events (AEs), irrespective of relationship to study drug, according to the National Cancer Institute Common Terminology Criteria for Adverse Events, version 4.0, and the incidence of patients experiencing dose modifications and/or premature discontinuation of study drug. Dose-limiting toxicities (DLTs) used to determine the MTD were defined as occurring during Cycle 1 of treatment only and related to PG545 according to investigator assessment. If no DLT occurred in the first three subjects, the next three-subject cohort was enrolled at the next highest available dose level. If a single DLT occurred, an additional three subjects was enrolled at the same dose level. Dose escalation continued until two subjects of the cohort experienced a DLT; this was defined as the toxic dose level. The dose-escalation phase was completed and MTD determined by reducing the dose to the next lowest dose compared to the toxic dose and expanding this cohort to at least 6 subjects.

[1] = 150 mg, during or 1 h post-infusion, typical
[2] = Life threatening/Fatal, Unrelated, Safety Set

SMILES: CC(C)CCC[C@@H](C)[C@H]1CC[C@H]2[C@@H]3CC[C@H]4C[C@@H](O[C@@H]5O[C@H](COS(=O)(=O)O)[C@@H](O[C@H]6O[C@H](COS(=O)(=O)O)[C@@H](O[C@H]7O[C@H](COS(=O)(=O)O)[C@@H](O[C@H]8O[C@H](COS(=O)(=O)O)[C@@H](OS(=O)(=O)O)[C@H](OS(=O)(=O)O)[C@H]8OS(=O)(=O)O)[C@H](OS(=O)(=O)O)[C@H]7OS(=O)(=O)O)[C@H](OS(=O)(=O)O)[C@H]6OS(=O)(=O)O)[C@H](OS(=O)(=O)O)[C@H]5OS(=O)(=O)O)CC[C@]4(C)[C@H]3CC[C@]12C [PG545]
- Pyrexia, treatment-related AE (100 mg, N = 6): 1 (17) n (%)
- Dose-limiting toxicities (DLTs), number (150 mg cohort, first cycle): Three
- Acute pulmonary oedema, related AE leading to discontinuation (150 mg, N = 9): 1 (11) n (%)
- Acute pulmonary oedema, related serious AE (150 mg, N = 9): 1 (11) n (%)
- Acute pulmonary oedema, related severe AE (150 mg, N = 9): 1 (11) n (%)
- Blood cholesterol increased, related severe AE (150 mg, N = 9): 1 (11) n (%)
- Blood cholesterol increased, treatment-related AE (150 mg, N = 9): 1 (11) n (%)
- Blood pressure increased, related severe AE (150 mg, N = 9): 1 (11) n (%)
- Chills, related AE leading to discontinuation (150 mg, N = 9): 0 n (%)
- Chills, related severe AE (150 mg, N = 9): 1 (11) n (%)
- Chills, treatment-related AE (150 mg, N = 9): 4 (44) n (%)
- Decreased appetite, treatment-related AE (150 mg, N = 9): 2 (22) n (%)
- Diarrhoea, treatment-related AE (150 mg, N = 9): 1 (11) n (%)
- Epistaxis, related AE leading to discontinuation (150 mg, N = 9): 1 (11) n (%)
- Epistaxis, related serious AE (150 mg, N = 9): 1 (11) n (%)
- Epistaxis, related severe AE (150 mg, N = 9): 1 (11) n (%)
- Fatigue, related severe AE (150 mg, N = 9): 0 n (%)
- Fatigue, treatment-related AE (150 mg, N = 9): 1 (11) n (%)
- Headache, treatment-related AE (150 mg, N = 9): 0 n (%)
- Hypercholesterolemia, treatment-related AE (150 mg, N = 9): 0 n (%)
- Hyperlipidaemia, related severe AE (150 mg, N = 9): 0 n (%)
- Hypertension, related AE leading to discontinuation (150 mg, N = 9): 1 (11) n (%)
- Hypertension, related serious AE (150 mg, N = 9): 1 (11) n (%)
- Hypertension, related severe AE (150 mg, N = 9): 5 (56) n (%)
- Hypertension, treatment-related AE (150 mg, N = 9): 5 (56) n (%)
- Hypovolaemia, related serious AE (150 mg, N = 9): 0 n (%)
- Infusion-related reaction, related serious AE (150 mg, N = 9): 1 (11) n (%)
- Infusion-related reaction, related severe AE (150 mg, N = 9): 1 (11) n (%)
- Infusion-related reaction, treatment-related AE (150 mg, N = 9): 5 (56) n (%)
- Injection site reaction, treatment-related AE (150 mg, N = 9): 0 n (%)
- Nausea, treatment-related AE (150 mg, N = 9): 1 (11) n (%)
- Pyrexia, related AE leading to discontinuation (150 mg, N = 9): 0 n (%)
- Pyrexia, related serious AE (150 mg, N = 9): 0 n (%)
- Pyrexia, related severe AE (150 mg, N = 9): 0 n (%)
- Pyrexia, treatment-related AE (150 mg, N = 9): 1 (11) n (%)
- Diastolic pressure during hypertension events, increase to [1]: 100 mm Hg
- Systolic pressure during hypertension events, increase to [1]: 170 mm Hg
- Blood pressure, substantial increase in one subject, to (150 mg, one subject): 200/126
- TEAE: At least one event (Life threatening/Fatal, Related, Safety Set): 0 (0.0%)
- TEAE: At least one event [2]: 5 (21.7%)
- TEAE: Death [2]: 2 (8.7%)
- TEAE: Fatigue [2]: 1 (4.3%)
- TEAE: GGT increased [2]: 3 (13.0%)
- TEAE: General disorders and administration site conditions [2]: 3 (13.0%)
- TEAE: Hyperuricaemia [2]: 1 (4.3%)
- TEAE: Investigations [2]: 3 (13.0%)
- TEAE: Metabolism and nutritional disorders [2]: 1 (4.3%)
- TEAE: Abdominal distension (Mild, Related, Safety Set): 1 (4.3%)
- TEAE: Abdominal pain lower (Mild, Related, Safety Set): 1 (4.3%)
- TEAE: Anaemia (Mild, Related, Safety Set): 1 (4.3%)
- TEAE: Asthenia (Mild, Related, Safety Set): 1 (4.3%)
- TEAE: At least one event (Mild, Related, Safety Set): 16 (70.0%)
- TEAE: Back pain (Mild, Related, Safety Set): 1 (4.3%)
- TEAE: Blood ALP increased (Mild, Related, Safety Set): 1 (4.3%)
- TEAE: Blood and lymphatic system disorders (Mild, Related, Safety Set): 1 (4.3%)
- TEAE: Blood cholesterol increased (Mild, Related, Safety Set): 1 (4.3%)
- TEAE: Blood triglycerides increased (Mild, Related, Safety Set): 1 (4.3%)
- TEAE: Chills (Mild, Related, Safety Set): 2 (8.7%)
- TEAE: Constipation (Mild, Related, Safety Set): 1 (4.3%)
- TEAE: Cough (Mild, Related, Safety Set): 1 (4.3%)
- TEAE: Decreased appetite (Mild, Related, Safety Set): 4 (17.4%)
- TEAE: Diarrhoea (Mild, Related, Safety Set): 4 (17.5%)
- TEAE: Diplopia (Mild, Related, Safety Set): 1 (4.3%)
- TEAE: Dizziness (Mild, Related, Safety Set): 1 (4.3%)
- TEAE: Dysgeusia (Mild, Related, Safety Set): 1 (4.3%)
- TEAE: Dyspepsia (Mild, Related, Safety Set): 1 (4.3%)
- TEAE: Eye disorders (Mild, Related, Safety Set): 1 (4.3%)
- TEAE: Fall (Mild, Related, Safety Set): 1 (4.3%)
- TEAE: Fatigue (Mild, Related, Safety Set): 1 (4.3%)
- TEAE: Gastrointestinal disorders (Mild, Related, Safety Set): 8 (34.8%)
- TEAE: General disorders and administration site conditions (Mild, Related, Safety Set): 11 (47.8%)
- TEAE: Headache (Mild, Related, Safety Set): 2 (8.7%)
- TEAE: Hypercholesterolaemia (Mild, Related, Safety Set): 1 (4.3%)
- TEAE: Hypovolaemia (Mild, Related, Safety Set): 1 (4.3%)
- TEAE: Infusion related reaction (Mild, Related, Safety Set): 1 (4.3%)
- TEAE: Injection site reaction (Mild, Related, Safety Set): 2 (8.7%)
- TEAE: Injury, poisoning and procedural complications (Mild, Related, Safety Set): 2 (8.7%)
- TEAE: Investigations (Mild, Related, Safety Set): 3 (13.0%)
- TEAE: Low density lipoprotein increased (Mild, Related, Safety Set): 1 (4.3%)
- TEAE: Malaise (Mild, Related, Safety Set): 1 (4.3%)
- TEAE: Metabolism and nutritional disorders (Mild, Related, Safety Set): 5 (21.7%)
- TEAE: Musculoskeletal and connective tissue disorders (Mild, Related, Safety Set): 2 (8.7%)
- TEAE: Musculoskeletal pain (Mild, Related, Safety Set): 1 (4.3%)
- TEAE: Nausea (Mild, Related, Safety Set): 4 (17.5%)
- TEAE: Nervous system disorders (Mild, Related, Safety Set): 3 (13.0%)
- TEAE: Oxygen saturation decreased (Mild, Related, Safety Set): 1 (4.3%)
- TEAE: Peripheral coldness (Mild, Related, Safety Set): 1 (4.3%)
- TEAE: Pyrexia (Mild, Related, Safety Set): 5 (21.7%)
- TEAE: Rash (Mild, Related, Safety Set): 1 (4.3%)
- TEAE: Rash erythematous (Mild, Related, Safety Set): 1 (4.3%)
- TEAE: Respiratory, thoracic and mediastinal disorders (Mild, Related, Safety Set): 1 (4.3%)
- TEAE: Skin and subcutaneous tissue disorders (Mild, Related, Safety Set): 2 (8.7%)
- TEAE: Vascular disorders (Mild, Related, Safety Set): 1 (4.3%)
- TEAE: Abdominal distension (Mild, Unrelated, Safety Set): 1 (4.3%)
- TEAE: Abdominal pain (Mild, Unrelated, Safety Set): 2 (8.7%)
- TEAE: Abdominal pain upper (Mild, Unrelated, Safety Set): 1 (4.3%)
- TEAE: Anxiety (Mild, Unrelated, Safety Set): 2 (8.7%)
- TEAE: Ascites (Mild, Unrelated, Safety Set): 1 (4.3%)
- TEAE: Back pain (Mild, Unrelated, Safety Set): 2 (8.7%)
- TEAE: Blood ALP increased (Mild, Unrelated, Safety Set): 1 (4.3%)

From paper PMC5931096, “A Phase I study of the novel immunomodulatory agent PG545 (pixatimod) in subjects with advanced solid tumours” (British Journal of Cancer, 2018)
